# Tested on: C57BL/6J mice
# Assay: Oral glucose tolerance test
# Format: in vivo
# Conditions: male C57BL/6J mice, fasted overnight, oral gavage 10 mg/kg, glucose 3 g/kg orally 30 minutes after compound, area under the curve of blood glucose level relative to control group
# Experimental: Commercially available mice (C57BL/6J mice; male; 8 to 12 weeks old when used; distributed by Charles River Laboratories Japan, Inc.) were used.
# After acclimatization with freely feeding (FR-2, Funabashi Farm Co., Ltd.) for one week or more, the mice were fasted overnight and then used for the test. A 0.5% methylcellulose (Wako Pure Chemical Industries, Ltd.) solution (0.5% MC) containing a test compound at a concentration of 1 mg/ml and a mixed solution (PG:Tween) of propylene glycol (80 v/v %, Nacalai Tesque, Inc.) and Tween 80 (20 v/v %, Nacalai Tesque, Inc.) containing a test compound at a concentration of 2 mg/ml were prepared for administration to the mice. The prepared solution was administered by oral gavage to four or five mice in each group at a dose of 10 mg/kg as the test compound. For a control group, a 0.5% methylcellulose solution (dose: 10 ml/kg) or a mixed solution of propylene glycol and Tween 80 (dose: 5 ml/kg) was orally administered to mice. An oral glucose tolerance test was carried out by administering a glucose solution (Otsuka Glucose Solution 50%; Otsuka Pharmaceutical Factory, Inc.) orally at a dose of 3 g/kg to the mice 30 minutes after administration of the test compound.
# Blood was collected from the tail vein of each mouse immediately before administration of the test compound (T0), […] after administration of the test compound (T1), and 30 minutes (T2) and 90 minutes (T3) after oral glucose loading. The blood glucose level was measured using a blood glucose level measuring apparatus (ACCU-CHEK Aviva; Roche Diagnostics, K.K.). The blood glucose level T1 was analyzed as a value obtained 30 minutes after administration of the compound and immediately before glucose loading. According to the following formula, the area under the curve of blood glucose level was calculated, and thereafter, the blood glucose lowering rate (%) was calculated as a value relative to the control group. The area under the curve of blood glucose level=[(blood glucose level T0+blood glucose level T1)×30]÷2+[(blood glucose level T1+blood glucose level T2)×30]÷2+[(blood glucose level T2+blood glucose level T3)×60]÷2 Blood glucose lowering rate(%)=[1−(the area under the curve of blood glucose level for the test compound group/the area under the curve of blood glucose level for the control group)]×100
smiles,measurement,setting,value
"COc1ccc(-c2cccc(C(=O)O)n2)cc1C1C2=C(CC(C)(C)CC2=O)OC2=C1C(=O)CC(C)(C)C2 [Example 1, 6-[4-Methoxy-3-(3,3,6,6-tetramethyl-1,8-dioxo-2,3,4,5,6,7,8,9-octahydro-1H-xanthen-9-yl)phenyl]pyridine-2-carboxylic acid]",Blood glucose lowering rate (%),solvent PG:Tween,39%
"COc1ccc(-c2cccc(C(=O)O)n2)c(C)c1C1C2=C(CC(C)(C)CC2=O)OC2=C1C(=O)CC(C)(C)C2 [Example 4, 6-[4-Methoxy-2-methyl-3-(3,3,6,6-tetramethyl-1,8-dioxo-2,3,4,5,6,7,8,9-octahydro-1H-xanthen-9-yl)phenyl]pyridine-2-carboxylic acid]",Blood glucose lowering rate (%),solvent PG:Tween,60%
"COc1ccc(-c2cccc(C(=O)NS(C)(=O)=O)n2)cc1C1C2=C(CC(C)(C)CC2=O)OC2=C1C(=O)CC(C)(C)C2 [Example 5, 6-[4-Methoxy-3-(3,3,6,6-tetramethyl-1,8-dioxo-2,3,4,5,6,7,8,9-octahydro-1H-xanthen-9-yl)phenyl]-N-(methylsulfonyl)pyridine-2-carboxamide]",Blood glucose lowering rate (%),solvent PG:Tween,43%
"COc1ccc(-c2cccc(-c3noc(=O)[nH]3)n2)cc1C1C2=C(CC(C)(C)CC2=O)OC2=C1C(=O)CC(C)(C)C2 [Example 8, 9-{2-Methoxy-5-[6-(5-oxo-4,5-dihydro-1,2,4-oxadiazol-3-yl)pyridin-2-yl]phenyl}-3,3,6,6-tetramethyl-3,4,5,6,7,9-hexahydro-1H-xanthene-1,8(2H)-dione]",Blood glucose lowering rate (%),solvent PG:Tween,38%
"COc1ccc(-c2cccc(C(=O)NS(C)(=O)=O)n2)c(C)c1C1C2=C(CC(C)(C)CC2=O)OC2=C1C(=O)CC(C)(C)C2 [Example 9, 6-[4-Methoxy-2-methyl-3-(3,3,6,6-tetramethyl-1,8-dioxo-2,3,4,5,6,7,8,9-octahydro-1H-xanthen-9-yl)phenyl]-N-(methylsulfonyl)pyridine-2-carboxamide]",Blood glucose lowering rate (%),solvent PG:Tween,42%
"COc1ccc(-c2ccc(C)c(C(=O)O)n2)c(C)c1C1C2=C(CC(C)(C)CC2=O)OC2=C1C(=O)CC(C)(C)C2 [Example 10, 6-[4-Methoxy-2-methyl-3-(3,3,6,6-tetramethyl-1,8-dioxo-2,3,4,5,6,7,8,9-octahydro-1H-xanthen-9-yl)phenyl]-3-methylpyridine-2-carboxylic acid]",Blood glucose lowering rate (%),solvent PG:Tween,55%
"COc1ccc(-c2ccc(O)c(C(=O)O)n2)c(C)c1C1C2=C(CC(C)(C)CC2=O)OC2=C1C(=O)CC(C)(C)C2 [Example 11, 3-Hydroxy-6-[4-methoxy-2-methyl-3-(3,3,6,6-tetramethyl-1,8-dioxo-2,3,4,5,6,7,8,9-octahydro-1H-xanthen-9-yl)phenyl]pyridine-2-carboxylic acid]",Blood glucose lowering rate (%),solvent PG:Tween,42%
"C#Cc1ccc(-c2ccc(OC)c(C3C4=C(CC(C)(C)CC4=O)OC4=C3C(=O)CC(C)(C)C4)c2C)nc1C(=O)O [Example 12, 3-Ethynyl-6-[4-methoxy-2-methyl-3-(3,3,6,6-tetramethyl-1,8-dioxo-2,3,4,5,6,7,8,9-octahydro-1H-xanthen-9-yl)phenyl]pyridine-2-carboxylic acid]",Blood glucose lowering rate (%),solvent 0.5% MC,31%
"CCc1ccc(-c2ccc(OC)c(C3C4=C(CC(C)(C)CC4=O)OC4=C3C(=O)CC(C)(C)C4)c2C)nc1C(=O)O [Example 13, 3-Ethyl-6-[4-methoxy-2-methyl-3-(3,3,6,6-tetramethyl-1,8-dioxo-2,3,4,5,6,7,8,9-octahydro-1H-xanthen-9-yl)phenyl]pyridine-2-carboxylic acid]",Blood glucose lowering rate (%),solvent 0.5% MC,61%
"COc1ccc(-c2cccc(C(=O)NS(C)(=O)=O)n2)c(C)c1C1C2=C(CC(C)(C)CC2=O)OC2=C1C(=O)CC(C)(C)C2.[K] [Example 14, 6-[4-Methoxy-2-methyl-3-(3,3,6,6-tetramethyl-1,8-dioxo-2,3,4,5,6,7,8,9-octahydro-1H-xanthen-9-yl)phenyl]-N-(methylsulfonyl)pyridine-2-carboxamide potassium salt]",Blood glucose lowering rate (%),solvent 0.5% MC,46%
"COc1ccc(-c2ccc(C)c(C(=O)NS(C)(=O)=O)n2)c(C)c1C1C2=C(CC(C)(C)CC2=O)OC2=C1C(=O)CC(C)(C)C2 [Example 16, 6-[4-Methoxy-2-methyl-3-(3,3,6,6-tetramethyl-1,8-dioxo-2,3,4,5,6,7,8,9-octahydro-1H-xanthen-9-yl)phenyl]-3-methyl-N-(methylsulfonyl)pyridine-2-carboxamide]",Blood glucose lowering rate (%),solvent 0.5% MC,45%
"CCc1ccc(-c2ccc(OC)c(C3C4=C(CC(C)(C)CC4=O)OC4=C3C(=O)CC(C)(C)C4)c2C)nc1C(=O)NS(C)(=O)=O [Example 17, 3-Ethyl-6-[4-methoxy-2-methyl-3-(3,3,6,6-tetramethyl-1,8-dioxo-2,3,4,5,6,7,8,9-octahydro-1H-xanthen-9-yl)phenyl]-N-(methylsulfonyl)pyridine-2-carboxamide]",Blood glucose lowering rate (%),solvent 0.5% MC,43%
"CC(C)(C)N.COc1ccc(-c2cccc(C(=O)NS(C)(=O)=O)n2)c(C)c1C1C2=C(CC(C)(C)CC2=O)OC2=C1C(=O)CC(C)(C)C2 [Example 18, 6-[4-methoxy-2-methyl-3-(3,3,6,6-tetramethyl-1,8-dioxo-2,3,4,5,6,7,8,9-octahydro-1H-xanthen-9-yl)phenyl]-N-(methylsulfonyl)pyridine-2-carboxamide 2-methylpropan-2-amine salt]",Blood glucose lowering rate (%),solvent 0.5% MC,31%
"COc1ccc(-c2ccc(C)c(C(=O)NS(C)(=O)=O)n2)c(C)c1C1C2=C(CC(C)(C)CC2=O)OC2=C1C(=O)CC(C)(C)C2.[Na] [Example 19, 6-[4-Methoxy-2-methyl-3-(3,3,6,6-tetramethyl-1,8-dioxo-2,3,4,5,6,7,8,9-octahydro-1H-xanthen-9-yl)phenyl]-3-methyl-N-(methylsulfonyl)pyridine-2-carboxamide sodium salt]",Blood glucose lowering rate (%),solvent 0.5% MC,40%
"COc1ccc(-c2cccc(C(=O)NS(C)(=O)=O)n2)c(C)c1C1C2=C(CC(C)(C)CC2=O)OC2=C1C(=O)CC(C)(C)C2.COc1ccc(-c2cccc(C(=O)NS(C)(=O)=O)n2)c(C)c1C1C2=C(CC(C)(C)CC2=O)OC2=C1C(=O)CC(C)(C)C2.[Ca] [Example 20, 6-[4-Methoxy-2-methyl-3-(3,3,6,6-tetramethyl-1,8-dioxo-2,3,4,5,6,7,8,9-octahydro-1H-xanthen-9-yl)phenyl]-N-(methylsulfonyl)pyridine-2-carboxamide hemi-calcium salt]",Blood glucose lowering rate (%),solvent 0.5% MC,41%
"COc1ccc(-c2ccc(C)c(C(=O)NS(C)(=O)=O)n2)c(C)c1C1C2=C(CC(C)(C)CC2=O)OC2=C1C(=O)CC(C)(C)C2.COc1ccc(-c2ccc(C)c(C(=O)NS(C)(=O)=O)n2)c(C)c1C1C2=C(CC(C)(C)CC2=O)OC2=C1C(=O)CC(C)(C)C2.[Ca] [Example 21, 6-[4-Methoxy-2-methyl-3-(3,3,6,6-tetramethyl-1,8-dioxo-2,3,4,5,6,7,8,9-octahydro-1H-xanthen-9-yl)phenyl]-3-methyl-N-(methylsulfonyl)pyridine-2-carboxamide hemi-calcium salt]",Blood glucose lowering rate (%),solvent 0.5% MC,54%
"COc1ccc(-c2ccc(OC)c(C3C4=C(CC(C)(C)CC4=O)OC4=C3C(=O)CC(C)(C)C4)c2C)nc1C(=O)O [Example 23, 3-Methoxy-6-[4-methoxy-2-methyl-3-(3,3,6,6-tetramethyl-1,8-dioxo-2,3,4,5,6,7,8,9-octahydro-1H-xanthen-9-yl)phenyl]pyridine-2-carboxylic acid]",Blood glucose lowering rate (%),solvent PG:Tween,46%
"CCOc1ccc(-c2ccc(OC)c(C3C4=C(CC(C)(C)CC4=O)OC4=C3C(=O)CC(C)(C)C4)c2C)nc1C(=O)O [Example 28, 3-Ethoxy-6-[4-methoxy-2-methyl-3-(3,3,6,6-tetramethyl-1,8-dioxo-2,3,4,5,6,7,8,9-octahydro-1H-xanthen-9-yl)phenyl]pyridine-2-carboxylic acid]",Blood glucose lowering rate (%),solvent PG:Tween,60%
"COCCOc1ccc(-c2ccc(OC)c(C3C4=C(CC(C)(C)CC4=O)OC4=C3C(=O)CC(C)(C)C4)c2C)nc1C(=O)O [Example 29, 3-(2-Methoxyethoxy)-6-[4-methoxy-2-methyl-3-(3,3,6,6-tetramethyl-1,8-dioxo-2,3,4,5,6,7,8,9-octahydro-1H-xanthen-9-yl)phenyl]pyridine-2-carboxylic acid]",Blood glucose lowering rate (%),solvent 0.5% MC,32%
"COc1ccc(-c2ccc(C)c(C(=O)O)n2)cc1C1C2=C(CC(C)(C)CC2=O)OC2=C1C(=O)CC(C)(C)C2 [Example 30, 6-[4-Methoxy-3-(3,3,6,6-tetramethyl-1,8-dioxo-2,3,4,5,6,7,8,9-octahydro-1H-xanthen-9-yl)phenyl]-3-methylpyridine-2-carboxylic acid]",Blood glucose lowering rate (%),solvent 0.5% MC,55%
